Here are results for 8 compounds from PubChem BioAssay (NCI).

Where “and” joins values, the source holds several entries; their conditions need not be identical. Equal entries are not always repeated.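 Test compounds were applied to cells in 96-well plates for 48 hours at 5 doses. GI50 is the concentration that inhibits growth by half. TGI: total growth inhibition.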

Among the test systems are UACC-257 melanoma; PC-3 prostate; HS 578T breast; K-562 leukemia; MOLT-4 leukemia; MDA-MB-435; UACC-62 melanoma; MCF7 breast; NCI/ADR-RES ovarian; ACHN renal.
Holding throughout (test): NCI anticancer screen, dose series, 48 h

For the compound `CN(C)Cc1ccc(NC(=O)c2cncc(C#Cc3cnc(N)c4ncccc34)c2)cc1C(F)(F)F`, the GI50 in the experiment on UACC-257 melanoma was 0.673 µM; in the experiment with PC-3 prostate, 1.64 µM; in the experiment on HS 578T breast, 1.4 µM; in the experiment on MOLT-4 leukemia it was 0.701 µM; in the experiment with MDA-MB-435, 0.376 µM; with UACC-62 melanoma, 1.19 µM. The GI50 with MCF7 breast is 1.63 µM; with NCI/ADR-RES ovarian, 1.8 µM; with ACHN renal it was 1.52 µM. Also, the TGI in the experiment with UACC-257 melanoma was found to be 2.53 µM; with PC-3 prostate, 3.04 µM; with HS 578T breast, 3.12 µM; in the experiment on K-562 leukemia, 1.02 µM; with MOLT-4 leukemia it was 2.75 µM; with MDA-MB-435, 1.88 µM. The TGI in the experiment on UACC-62 melanoma is 2.53 µM; in the experiment with MCF7 breast it was 3.33 µM; in the experiment on NCI/ADR-RES ovarian, 3.67 µM; with ACHN renal, 2.89 µM.

Turning to `CN1CCN(C2=C(Cl)C(=O)c3ccccc3C2=O)CC1`, the GI50 with UACC-257 melanoma is 1.73 µM; in the experiment with PC-3 prostate, 3.45 µM; with HS 578T breast, 1.84 µM; in the experiment with K-562 leukemia, 1.65 µM; in the experiment with MOLT-4 leukemia, 2.2 µM; in the experiment with MDA-MB-435 it was 1.95 µM. In addition, the GI50 in the experiment on UACC-62 melanoma is 1.65 µM; in the experiment on MCF7 breast, 1.45 µM; in the experiment on NCI/ADR-RES ovarian it was 2.03 µM; in the experiment on ACHN renal, 1.57 µM. Also, the TGI in the experiment on UACC-257 melanoma amounted to 3.2 µM; with PC-3 prostate, 8.91 µM; in the experiment on HS 578T breast, 4.84 µM; in the experiment on K-562 leukemia, 7.57 µM; in the experiment on MOLT-4 leukemia, 8.26 µM; with MDA-MB-435 it was 3.6 µM. Further, the TGI is 3.11 µM in the experiment on UACC-62 melanoma, 3.16 µM with MCF7 breast, 4.57 µM with NCI/ADR-RES ovarian and 2.94 µM in the experiment with ACHN renal.

For `COc1ccc(-c2cn(C)c3c2-n2cccc2C3=O)cc1O`, the GI50 with UACC-257 melanoma was 15.9 µM; in the experiment with PC-3 prostate, 6.09 µM; with HS 578T breast, 0.611 µM; in the experiment on K-562 leukemia, 4.3 µM; in the experiment on MOLT-4 leukemia, 7.21 µM; in the experiment on MDA-MB-435, 0.893 µM. Further, the GI50 in the experiment on UACC-62 melanoma is 3.27 µM; in the experiment on MCF7 breast, 0.806 µM; in the experiment on NCI/ADR-RES ovarian, 3.39 µM; in the experiment with ACHN renal, 5.05 µM. Also, the TGI in the experiment on UACC-257 melanoma was 32.9 µM; with PC-3 prostate it was more than 100 µM; with HS 578T breast, 3.9 µM; in the experiment with K-562 leukemia, more than 100 µM; in the experiment with MOLT-4 leukemia it was 82.2 µM; in the experiment with MDA-MB-435, 3.91 µM. Further, the TGI was 12.2 µM in the experiment on UACC-62 melanoma, 20.3 µM in the experiment with MCF7 breast, 25.3 µM in the experiment with NCI/ADR-RES ovarian and 22.5 µM with ACHN renal.

As to `N[C@H]1CCC[C@@H](O)C1O` (stereo not given in full), the TGI in the experiment with UACC-257 melanoma, in the experiment with PC-3 prostate, in the experiment on HS 578T breast, with K-562 leukemia, with MOLT-4 leukemia and with MDA-MB-435 was more than 100 µM in each case. Further, the TGI with UACC-62 melanoma, in the experiment on MCF7 breast, with NCI/ADR-RES ovarian and in the experiment with ACHN renal was more than 100 µM in each case. The GI50 in the experiment on MOLT-4 leukemia was more than 100 µM.

Consider `CC(C)(C)OC(=O)NCCCCCCCCCn1c2c(c3ccccc3c1=O)C(=O)c1ccccc1-2`, for which the GI50 in the experiment on UACC-257 melanoma was more than 100 µM; in the experiment with PC-3 prostate, more than 100 µM; in the experiment on HS 578T breast, 14.2 µM; with K-562 leukemia, more than 100 µM; in the experiment with MOLT-4 leukemia, more than 100 µM; in the experiment on MDA-MB-435, more than 100 µM. The GI50 in the experiment on UACC-62 melanoma is 17.3 µM; with MCF7 breast, 90 µM; with NCI/ADR-RES ovarian, 43.5 µM; with ACHN renal, 27 µM. Moreover, the TGI was more than 100 µM with UACC-257 melanoma; more than 100 µM in the experiment with PC-3 prostate; 43.6 µM in the experiment with HS 578T breast; more than 100 µM in the experiment with K-562 leukemia; more than 100 µM with MOLT-4 leukemia; more than 100 µM with MDA-MB-435. The TGI in the experiment on UACC-62 melanoma was 40.7 µM; in the experiment on MCF7 breast it was more than 100 µM; in the experiment with NCI/ADR-RES ovarian, more than 100 µM; with ACHN renal, more than 100 µM.

Consider `CCC/C=C/C=C/C(=O)OC1/C(=C/C(=O)OC)CC2CC(C(C)O)OC(=O)CC(O)CC3CC(OC(C)=O)C(C)(C)C(O)(CC4C/C(=C/C(=O)OC)CC(/C=C/C(C)(C)C1(O)O2)O4)O3` (stereo not given), for which the GI50 was 5.13 µM and 8.15 µM and > 12.5 µM with UACC-257 melanoma; more than 12.5 µM with PC-3 prostate; more than 12.5 µM in the experiment on HS 578T breast; 8.57 µM and 3.77 µM and > 12.5 µM in the experiment on K-562 leukemia; 5.48 µM and 3.26 µM and > 12.5 µM in the experiment with MOLT-4 leukemia; more than 12.5 µM in the experiment with MDA-MB-435. The GI50 with UACC-62 melanoma is > 10.9 µM and 5.26 µM and > 12.5 µM; in the experiment on MCF7 breast, > 10.9 µM and 5.88 µM and > 12.5 µM; in the experiment with NCI/ADR-RES ovarian, more than 12.5 µM; in the experiment with ACHN renal, more than 12.5 µM. Moreover, the TGI was 6.42 µM and 11 µM and > 12.5 µM in the experiment with UACC-257 melanoma; 11 µM and > 12.5 µM in the experiment on PC-3 prostate; 10.8 µM and > 12.5 µM in the experiment on HS 578T breast; 10.9 µM and 11 µM and > 12.5 µM in the experiment with K-562 leukemia; 10.6 µM and 10.5 µM and > 12.5 µM in the experiment with MOLT-4 leukemia; 11 µM and > 12.5 µM in the experiment on MDA-MB-435. For the same compound, the TGI in the experiment on UACC-62 melanoma was > 10.9 µM and 11 µM and > 12.5 µM; in the experiment on MCF7 breast, > 10.9 µM and 11 µM and > 12.5 µM; in the experiment on NCI/ADR-RES ovarian, more than 12.5 µM; in the experiment on ACHN renal, 11 µM and > 12.5 µM.

In the case of `NC(CSC(c1ccccc1)(c1ccccc1)c1ccccc1)C(=O)O` (stereo not given), the GI50 was 1.18 µM and 0.789 µM in the experiment on UACC-257 melanoma; 2.43 µM in the experiment with PC-3 prostate; 0.723 µM with HS 578T breast; 1.76 µM and 0.775 µM with K-562 leukemia; 7.54 µM and 5.01 µM in the experiment with MOLT-4 leukemia; 0.275 µM with MDA-MB-435. Further, the GI50 was 2.01 µM and 3.98 µM with UACC-62 melanoma; 0.665 µM and 0.416 µM in the experiment with MCF7 breast; 10.9 µM in the experiment on NCI/ADR-RES ovarian; 20.2 µM and 9.65 µM in the experiment with ACHN renal. For the same compound, the TGI in the experiment with UACC-257 melanoma is 53.8 µM and 94.6 µM and > 100 µM; in the experiment on PC-3 prostate, 12.1 µM and > 100 µM; in the experiment on HS 578T breast it was 21 µM and 32.4 µM; in the experiment on K-562 leukemia it was 31.9 µM and > 100 µM; with MOLT-4 leukemia it was 83.8 µM and 15.9 µM and > 100 µM; in the experiment on MDA-MB-435 it was 0.648 µM and 0.791 µM. For the same compound, the TGI with UACC-62 melanoma was 42.9 µM and > 100 µM; with MCF7 breast, 67.8 µM and > 100 µM; in the experiment on NCI/ADR-RES ovarian, 48.2 µM and > 100 µM; in the experiment with ACHN renal, 79.5 µM and > 100 µM.

As to `COc1ccc([N+](=O)[O-])c2c(NCCCN(C)C)c(C)c(C)nc12`, the TGI in the experiment on UACC-257 melanoma, in the experiment on PC-3 prostate, in the experiment with HS 578T breast, with K-562 leukemia, in the experiment with MOLT-4 leukemia and with MDA-MB-435 was more than 100 µM throughout. For the same compound, the TGI in the experiment on UACC-62 melanoma, in the experiment on MCF7 breast, in the experiment on NCI/ADR-RES ovarian and in the experiment on ACHN renal was more than 100 µM each time.
